Values belong to the compound of their own block, whether it stands above or below them.
Experiments:
AMPK [1] = experiment: AMPK/ACC phosphorylation in primary mouse hepatocytes (immunoblot); format: cell-based; set-up: Phosphorylation (Ser79) of ACC / AMPK protein levels / ACC protein levels / Phosphorylation of ACC stimulated by VPA, in presence of AMPK inhibitor: dose or concentration left out as unconfirmed; conditions: for Levels of phosphorylated AMPK/ACC compared with VPA: 20 mM metabolite vs 800 mM VPA, 2 hours; for Levels of phosphorylated AMPK/ACC at higher concentration: 100 mM metabolite (data not shown)
Protocol: (§1) Proteins (20 mg) were resolved by sodium dodecyl sulfate polyacrylamide gel electrophoresis, electrotransferred to a nitrocellulose membrane, and probed using antibodies against AMPKa, phosphorylated (p-) AMPKa (Thr172), ACC, p-ACC (Ser79), and b-actin (obtained from Cell Signaling Technology, Danvers, Mass.).

[2] = test system: HDAC activity of mouse liver nuclear extracts; experiment: HDAC activity fluorometric assay, crude nuclear extracts; format: biochemical; set-up: dose or concentration left out as unconfirmed; conditions: mean ± S.D.
Protocol: (§2) FIG. 5A-5D. […] Deacetylation was measured using a fluorimetric assay. […] AMPKa was immunoprecipitated and immunoblotted for AMPKa and acetylated lysine (D). Immunoblots shown in D are representative of three independent experiments. Data in graphs are reported as the mean […] S.D. of samples from four independent experiments. […] DMSO, dimethylsulfoxide.
(§3) Analysis of HDAC activity was performed using an HDAC activity fluorometric assay kit (Caymen Chemicals, Ann Arbor, Mich.) and was carried out according to the manufacturer's instructions. Crude nuclear extracts were prepared from primary mouse hepatocytes as described in the manufacturer's instructions.

human recombinant HDAC1 = human recombinant HDAC1 (Homo sapiens, UniProt Q13547); experiment: HDAC activity fluorometric assay, recombinant HDAC1; format: biochemical; conditions: 800 mM VPA; 1 mM TSA; 20 mM metabolites; mean ± S.D.
human recombinant HDAC1, sequence (Q13547 whole entry): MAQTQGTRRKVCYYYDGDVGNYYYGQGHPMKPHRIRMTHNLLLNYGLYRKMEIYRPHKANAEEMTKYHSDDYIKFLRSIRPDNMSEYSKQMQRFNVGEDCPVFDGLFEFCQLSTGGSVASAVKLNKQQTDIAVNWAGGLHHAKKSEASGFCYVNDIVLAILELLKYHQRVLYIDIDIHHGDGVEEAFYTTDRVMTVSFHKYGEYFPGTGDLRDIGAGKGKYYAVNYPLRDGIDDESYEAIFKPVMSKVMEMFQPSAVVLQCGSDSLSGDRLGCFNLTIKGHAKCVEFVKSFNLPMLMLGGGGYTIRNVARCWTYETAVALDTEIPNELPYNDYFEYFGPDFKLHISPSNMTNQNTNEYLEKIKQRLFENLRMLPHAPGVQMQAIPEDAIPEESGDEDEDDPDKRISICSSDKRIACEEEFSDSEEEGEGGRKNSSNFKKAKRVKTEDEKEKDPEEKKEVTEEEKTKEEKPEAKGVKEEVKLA
Protocol: as §2, §3

AMPK [3] = experiment: AMPK/ACC phosphorylation in primary human hepatocytes (immunoblot); format: cell-based; set-up: dose or concentration left out as unconfirmed; conditions: 1 to 24 hours; following 1 hour; each of four donors
Protocol: Primary human hepatocytes were obtained from XenoTech LLC (Lenexa, Kans.). Four preparations were used: […]. The hepatocytes had reported viabilities of 95.4, 74.7, 77.9, and 74.9%, respectively. Upon receipt, the shipping medium was changed to Williams' E medium containing 10% FBS, penicillin, streptomycin, and L-glutamine. Following 24 hours of incubation at 37° C. and 5% CO2, the media was changed to 5% FBS, penicillin, streptomycin, and L-glutamine 4 hours prior to treatments.
as §1, with “Cells were harvested as previously described (Bumpus, 2011). Proteins” for “Proteins”

AMPKa = AMPKa acetylation status in hepatocytes (immunoprecipitation, acetylated lysine immunoblot); format: cell-based, mouse
Protocol: as §2

ob/ob mice = experiment: In vivo mouse study, 14 days via drinking water; conditions: for Accumulation of fats in the liver (histology) compared with untreated mice: hematoxylin and eosin staining; for Body mass day 1: day 1 prior to treatment; for Body mass day 7 / Body mass day 14: 0.26% (w/v) VPA or 0.5% (w/v) metformin in drinking water
Protocol: FIG. 6A-6E. […] A section of each liver was analyzed using hemotoxylin and eosin staining Histology images are representative of four mice per treatment group (A). The mass of each liver was measured and calculated as a ratio to body mass (B). Serum glucose (C) and serum triglyceride (D) concentrations were measured using colorimetric assays. ALT was measured using a colorimetric assay to assess for hepatotoxicity (E). Data in graphs are reported as the mean […] S.D. of four mice per cohort.
All treatments of mice as a part of this study were in accordance with protocols that were approved by the Institutional Animal Care and Use Committee of The Johns Hopkins University School of Medicine. […] Body masses were recorded on day 1 prior to treatment, day 7, and day 14. After 14 days of drug treatments, all mice were euthanized by isoflurane inhalation followed by cervical dislocation, and whole blood was collected immediately. The livers were weighed immediately, rinsed in cold phosphate-buffered saline, and fixed in 10% formalin for 48 hours for hematoxylin and eosin staining.
Serum glucose was analyzed using a Colorimetric Glucose Assay obtained from BioVision, Inc. (Milpitas, Calif.) and was performed according to manufacturer's instructions. Serum triglycerides were analyzed utilizing a Serum Triglyceride Determination Kit obtained from Sigma-Aldrich and was performed according to manufacturer's instructions.

[4] = 10 mg/kg/day in adults; cited from earlier work

deacetylation (human recombinant HDAC1): 81.5±15.5%
Structure (SMILES): C=CCC(CCC)C(=O)O (racemic) [4-ene-VPA, (+/−)-2-Propyl-4-pentenoic Acid]
Levels of phosphorylated AMPK/ACC compared with VPA (AMPK [1]): greater than treatment with VPA itself | Levels of phosphorylated AMPK/ACC at higher concentration (AMPK [1]): commensurate with those observed using 20 mM of metabolites | deacetylation as compared with samples treated with vehicle only [2]: 90.1±3.9%

deacetylation (human recombinant HDAC1): 90±9.1%
Structure (SMILES): CC/C=C(\CCC)C(=O)O [2-ene-VPA, (E,Z) 2-Propyl-2-pentenoic Acid]
Levels of phosphorylated AMPK/ACC compared with VPA (AMPK [1]): greater than treatment with VPA itself | Levels of phosphorylated AMPK/ACC at higher concentration (AMPK [1]): commensurate with those observed using 20 mM of metabolites | deacetylation as compared with samples treated with vehicle only [2]: 93.6±3.6%

deacetylation (human recombinant HDAC1): 86±16.8%
Structure (SMILES): CCCC(C(=O)O)C(O)CC (stereo not drawn) [3-OH-VPA, 3-Hydroxy-2-propylpentanoic Acid]
Levels of phosphorylated AMPK/ACC compared with VPA (AMPK [1]): greater than treatment with VPA itself | Levels of phosphorylated AMPK/ACC at higher concentration (AMPK [1]): commensurate with those observed using 20 mM of metabolites | deacetylation as compared with samples treated with vehicle only [2]: 98±3.9%

deacetylation (human recombinant HDAC1): 90.9±15.2%
Structure (SMILES): CCCC(C(=O)[O-])C(=O)CC.[Na+] (stereo not drawn) [3-keto-VPA, 3-oxo-2-propyl-pentanoic Acid Sodium Salt]
deacetylation as compared with samples treated with vehicle only [2]: 94±7.3%

Structure (SMILES): Nn1nnc2ccccc21 [ABT, 1-aminobenzotriazole]
Levels of phosphorylated AMPK, ABT and VPA compared with ABT alone (AMPK [1]; 1 mM ABT 1 hour prior to VPA for 2 hours): not elevated

Structure (SMILES): c1cc(-c2cnn3cc(-c4ccc(OCCN5CCCCC5)cc4)cnc23)ccn1 [Compound C, 6-[4-(2-piperidin-1-ylethoxy)phenyl]-3-pyridin-4-ylpyrazolo[1,5-a]pyrimidine]
Phosphorylation of ACC stimulated by VPA, in presence of AMPK inhibitor (AMPK [1]; Compound C 30 minutes prior to VPA for 2 hours): abrogated

Structure (SMILES): CC(/C=C/C(=O)NO)=C\[C@@H](C)C(=O)c1ccc(N(C)C)cc1 [TSA, trichostatin A]
deacetylation as compared with samples treated with vehicle only [2]: 34.6±4.3%

Structure (SMILES): CCCC(CCC)C(=O)O [VPA, valproic acid]
Concentration at which maximal phosphorylation of AMPK and ACC was observed (AMPK [1]; 2-hour treatment, concentrations from 200 mM to 2 mM): 800 mM | ACC protein levels (AMPK [1]; VPA): not significantly different | AMPK protein levels (AMPK [1]; VPA): did not change significantly | Phosphorylation (Ser79) of ACC (AMPK [1]; VPA, time course 1-24 hours): observed | Phosphorylation of AMPK and ACC (AMPK [3]): observed | deacetylation as compared with samples treated with vehicle only [2]: 76.4±1.2% | deacetylation (human recombinant HDAC1): 73.2±5% | Acetylation of AMPKa compared with vehicle treatment samples (AMPKa): commensurate | Accumulation of fats in the liver (histology) compared with untreated mice (ob/ob mice; 14 days): marked reduction | Body mass day 1 (ob/ob mice): 50.2 ± 3 g | Body mass day 7 (ob/ob mice): 51.8 ± 3 g | Body mass day 14 (ob/ob mice): 53.8 ± 2.7 g | Abnormalities in the histology of treated livers (ob/ob mice; mouse, in vivo): did not detect any abnormalities | Serum concentrations of VPA [4]: 400 to 1000 µM

Structure (SMILES): CN(C)C(=N)N=C(N)N [metformin, Metformin]
Ratio of liver mass to body mass compared with untreated mice (ob/ob mice; 14 days): significantly decreased | Serum ALT activity (ob/ob mice; 14 days): 13.3±4 mU/ml | Serum glucose concentrations compared with untreated mice (ob/ob mice; 14 days): significantly decreased | Serum triglyceride concentrations compared with untreated mice (ob/ob mice; 14 days): decreased | Accumulation of fats in the liver (histology) compared with untreated mice (ob/ob mice; 14 days): marked reduction | Body mass day 1 (ob/ob mice): 45.4 ± 6 g | Body mass day 7 (ob/ob mice): 47.4 ± 5.6 g | Body mass day 14 (ob/ob mice): 50 ± 6.1 g
